From patent publication US8178104B2, “Methods and compositions for targeting gC1qR/p32” (Sanford-Burnham Medical Research Institute, priority 2006, dated 2012)
Bridge positions count the residues as written; N and C are the ends. Ends that are not written are not given here. * marks the point of attachment. FITC = O=C1OC2(c3ccc(O)cc3Oc3cc(O)ccc32)c2ccc(NC(=S)*)cc21

Experiments:
[1] = target: T1, purified gC1qR/p32 protein (Homo sapiens, UniProt Q07021); test: In vitro phage binding to purified gC1qR/p32 coated on microtiter wells; conditions: 5 μg/ml coated protein, 16 h at 37° C., plaque assay
T1 sequence (Q07021 74-282): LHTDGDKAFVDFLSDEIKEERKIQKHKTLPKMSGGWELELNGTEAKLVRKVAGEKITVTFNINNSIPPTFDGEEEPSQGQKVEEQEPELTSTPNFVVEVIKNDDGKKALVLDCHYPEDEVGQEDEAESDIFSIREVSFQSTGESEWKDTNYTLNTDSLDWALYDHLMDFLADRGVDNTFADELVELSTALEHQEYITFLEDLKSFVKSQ
Description: Purified gC1qR/p32 or BSA, as a control, were coated onto microtiter wells (5 μg/ml) and targeted for binding with 10^8 pfu of insertless phage, Lyp-1 phage, or control phage carrying another tumor homing peptide (CREKA, SEQ ID NO:3). After 16 hours of incubation at 37° C., bound phages were eluted and quantified by plaque assay. The results are show in FIG. 2(a). Results are expressed as fold of Lyp-1 and CREKA (SEQ ID NO:3) phages recovered over insertless phage and are representative of five independent experiments.
Microtiter wells (Costar, Corning, N.Y.) were coated overnight at 4° C. with 5 μg/ml of either purified gC1qR/p32 or BSA (Sigma-Aldrich) in 100 μl/well of carbonate buffer (15 mM sodium carbonate, 35 mM sodium bicarbonate). Wells were washed three times with TBS and blocked with Pierce Superblock buffer according to the manufactures instructions. 10^8 pfu of LyP-1 and control phages were added to the wells in 100 μl/well of TBS/0.05% tween-20 and incubated for 16 h at 37° C. After 6 washes in TBS/0.05% tween-20, bound phages were eluted with 200 μl of Tris-HCl 1M pH 7.5/0.5% SDS for 30 min and subsequently quantified by plaque assay. […] Cells were washed 5 times with PBS/1% BSA and bound phages were quantified by plaque assay.

MDA-MB-435 tumors = test: Tumor localization of intravenously injected FITC-LyP-1 peptide; format: in vivo, mice; conditions: circulation 1 hour; p32 immunohistochemical staining
Source text: Tumor localization of gC1qR/p32 and Lyp-1 peptide were visualized. gC1qR/p32, lymphatic or blood vessels, podoplanin and Meca32/CD31 were stained with fluorescently-labeled antibodies in MDA-MB-435 tumor xenografts. Polyclonal anti-gC1qR/p32 antibody recognizes cell clusters that lack blood vessels but contain lymphatics, or cells lining vessel-like structures positive for Podoplanin but not CD31 or Meca32. Fluorescein-conjugated Lyp-1 peptide was i.v. injected into mice bearing MDA-MB-435 tumors and allowed to circulate for 1 hour before removal of the tumor for gC1qR/p32 immunohistochemical analysis. Lyp-1 peptide localizes in gC1qR/p32-positive patches within the tumor.

gC1qR/p32 = target: T2, gC1qR/p32 (Homo sapiens, UniProt Q07021); test: Pull-down assay with biotinylated peptides from tumor cell extracts; format: binding; conditions: extracts of cultured tumor cells (MDA-MB-435); anti-gC1qR/p32 immunoblot
T2 construct: the specific band represents the mature form of a protein known as gC1qR/p32; endogenous in cells; host or cells: MDA-MB-435 cultured cells; MDA-MB-435 tumor xenografts
T2 sequence (Q07021 74-282): T1 sequence (Q07021 74-282)
Description: Pull down assays were performed with biotinylated Lyp-1 peptide (SEQ ID NO:1, CGNKRTRGC) from protein extracts derived from MDA-MB-435 cultured cells or MDA-MB-435 tumor xenografts. A tumor homing peptide, CREKA (SEQ ID NO:3), and a peptide CRV which resembles Lyp-1 in its amino acid composition and cyclic structure (SEQ ID NO:4, CRVRTRSGC), were used as negative controls. The Lyp-1 bound proteins were visualized using silver staining and immunoblotting. […] The arrow indicates a specific 33 kD band, which was identified as gC1qR/p32 by mass spectrometry. […] The antibody recognizes a band of 33 kD in the total proteins lysate and in the Lyp-1 pull down. Anti gC1qR/p32 reactive bands are not detected in the pull downs from both control peptides. […] The monoclonal antibody against gC1qR/p32 recognized a 75 kD and a 33 kD band only in the Lyp-1 peptide pull down.
To identify the receptor for the LyP-1 peptide, biotin-labeled LyP-1 and control peptides were incubated with extracts of MDA-MB-435 cells, a cell line that binds and internalizes LyP-1 (Laakkonen et al., 2004). LyP-1 bound a specific band in the 30 kDa range that was not seen in the controls (FIG. 3A, left panel), which were the pentapeptide CREKA (SEQ ID NO: 3) (Simberg et al., 2007) and the nonapeptide CRVRTRSGC (SEQ ID NO: 4), which resembles LyP-1 in its amino acid composition and cyclic structure. […] LyP-1 affinity isolation also yielded gC1qR/p32 from cultured BT549 breast carcinoma cells and from extracts of MDA-MB-435 xenograft tumors.
Streptavidin agarose beads (Sigma-Aldrich) were resuspended in 2 volumes of phosphate buffer saline (PBS) and conjugated to 3 μg/10 μl beads of biotynilated peptides for 2 h on ice. After incubation, beads were washed three times with PBS/50 mM n-octyl-β-D glucopyranoside (Calbiochem; San Diego, Calif.) to remove free peptides. […] Bands that appeared in the LyP-1 but not control peptide pull down were cut out, digested with trypsin, and the resulting peptides were analyzed by matrix-assisted laser desorption ionization-time of flight (MALDI-TOF) mass spectrometry. […]

MDA-MB-435 = conditions: cited from earlier work
C8161 melanoma cells = conditions: cited from earlier work
HL-60 leukemia cells = conditions: cited from earlier work
BT549 = conditions: cited from earlier work
tumors = conditions: cited from earlier work
MDA-MB-435 cells = test: FACS analysis of FITC-peptide binding to MDA-MB-435 cells; format: cell-based; conditions: 10 μM, 1 hour at 4° C.; compared with Lyp-1
Description: MDA-MB-435 cells were transiently transfected with gC1qR/p32-specific or control siRNAs. […] The amount of fluorescence in living cells was analyzed by FACS. Cells incubated in the absence of peptide served as FITC negative control. Compared to control siRNA transfected cells, down-regulation of gC1qR/p32 expression (in the presence of gC1qR/p32 siRNA) caused a shift in the peak of Lyp-1 fluorescence but not control peptide fluorescence.
Cultured cells were detached with cell enzyme-free dissociation buffer (Gibco/Invitrogen) and collected in PBS containing 1% BSA (PBSB). Single cells suspensions from tumors were obtained as indicated above. For FACS staining, 2.5×10^5 cells were resuspended in 100 μl of PBSB and incubated with polyclonal anti-full-length gC1qR/p32 or rabbit IgG (20 μg/ml) in PBSB for 30 min at 4° C. The cells were washed in PBSB and stained with goat anti rabbit Alexa 488 (2.5 μg/ml) for 30 min at 4° C. For FACS analysis of bound FITC-peptides, cultured cells were detached as above and incubated with 10 μM of FITC-peptides in 10% FCS/DMEM for 1 hour at 4° C. After washes with PBSB, the cells were resuspended in PBS containing 2 μg/ml of propidium iodide (PI, Molecular Probes/Invitrogen) to distinguish between live and dead cells, and 10,000 cells per sample were analyzed using a BD Biosciences FACSort.

mitochondrial membranes = conditions: 10 μM; cited from earlier work

**Q.** Which “phage binding to purified gC1qR/p32 relative to insertless control phage” value [1] does the source give for CNRRTKAGC (displayed on phage) [LyP-2] here?
**A.** did not significantly bind

**Q.** For “FITC-LyP-1: fluorescein-conjugated LyP-1 peptide ({FITC}-CGNKRTRGC; disulfide 1-9 (inferred))”, which “tumor localization of intravenously injected peptide” value (MDA-MB-435 tumors) is on record?
**A.** accumulated in tumor areas with high expression levels of gC1qR/p32

**Q.** What does the source list for “CGNKRTRGC (disulfide 1-9 (inferred)) [LyP-1, tumor homing cyclic nonapeptide]”?
**A.** gC1qR/p32 bound/pulled down by biotinylated peptide (gC1qR/p32): specifically bound; LyP-1 binding (MDA-MB-435): strong; LyP-1 binding (C8161 melanoma cells): not to significantly bind; LyP-1 binding (HL-60 leukemia cells): not to significantly bind; LyP-1 binding (BT549): strong; TUNEL-positive lesions in tumors (tumors; in vivo peptide treatment): induced TUNEL-positive lesions; tumor growth (tumors; systemic administration): inhibits tumor growth

**Q.** For “ARALPSQRSR [control peptide with same overall charge as LyP-1]”, which “binding of FITC conjugated peptide to cells” value (MDA-MB-435 cells) is on record?
**A.** less binding ability

**Q.** Which mitochondrial swelling (mitochondrial membranes) does the source give for D(KLAKLAK)2 here?
**A.** marked mitochondrial swelling

**Q.** Which “gC1qR/p32 bound/pulled down by biotinylated peptide” value (gC1qR/p32) does the source give for “CRVRTRSGC (disulfide 1-9 (inferred)) [control nonapeptide resembling Lyp-1 in amino acid composition and cyclic structure]” here?
**A.** not detected

**Q.** With “CREKA [tumor homing pentapeptide used as negative control, as peptide and on phage]” as the substance, how does the “gC1qR/p32 bound/pulled down by biotinylated peptide” value (gC1qR/p32) read?
**A.** not detected

**Q.** What about the “phage binding to purified gC1qR/p32 relative to insertless control phage” value [1] of the same substance?
**A.** essentially no interaction
